Experimental data published in PubChem BioAssay (NCI).
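Assay format: 96-well plates, 48-hour exposure. TGI: concentration producing complete growth inhibition.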

Key:
Test in all cases: NCI tumour cell line growth inhibition, 48 h
[1] = tested on: SF-268 CNS
[2] = tested on: SK-OV-3 ovarian
[3] = tested on: HCT-116 colon
[4] = tested on: NCI-H23 lung
[5] = tested on: UACC-62 melanoma
[6] = tested on: T-47D breast
[7] = tested on: DU-145 prostate
[8] = tested on: 786-0 renal
[9] = tested on: OVCAR-5 ovarian
[10] = tested on: RXF 393 renal
[11] = tested on: HCC-2998 colon
[12] = tested on: SF-539 CNS
[13] = tested on: A549 NSCLC
[14] = tested on: K-562 leukemia
[15] = tested on: MDA-N
[16] = tested on: MDA-MB-435
[17] = tested on: HL-60(TB) leukemia
[18] = tested on: SK-MEL-28 melanoma
[19] = tested on: COLO 205 colon
[20] = tested on: UO-31 renal
[21] = tested on: MCF7 breast
[22] = tested on: MALME-3M melanoma
[23] = tested on: CCRF-CEM leukemia
[24] = tested on: RPMI-8226 leukemia
[25] = tested on: M14 melanoma
[26] = tested on: MDA-MB-231 breast
[27] = tested on: SNB-19 CNS
[28] = tested on: NCI/ADR-RES ovarian
[29] = tested on: MOLT-4 leukemia
[30] = tested on: HOP-62 NSCLC
[31] = tested on: IGROV1 ovarian
[32] = tested on: OVCAR-8 ovarian
[33] = tested on: KM12 colon
[34] = tested on: SN12C renal
[35] = tested on: UACC-257 melanoma
[36] = tested on: SW-620 colon
[37] = tested on: EKVX NSCLC
[38] = tested on: BT-549 breast
[39] = tested on: SK-MEL-2 melanoma
[40] = tested on: HOP-92 NSCLC
[41] = tested on: SNB-75 CNS
[42] = tested on: NCI-H460 lung
[43] = tested on: PC-3 prostate
[44] = tested on: LOX IMVI melanoma
[45] = tested on: CAKI-1 renal
[46] = tested on: HS 578T breast
[47] = tested on: HT29 colon
[48] = tested on: SF-295 CNS
[49] = tested on: ACHN renal
[50] = tested on: U251 CNS
[51] = tested on: NCI-H226 lung
[52] = tested on: SK-MEL-5 melanoma
[53] = tested on: HCT-15 colon
[54] = tested on: OVCAR-3 ovarian
[55] = tested on: NCI-H522 lung
[56] = tested on: TK-10 renal
[57] = tested on: OVCAR-4 ovarian
[58] = tested on: A498 renal
[59] = tested on: SR leukemia

For `CCO/C=N/C1=C(C#N)C(c2ccc(OC)c(OC)c2)c2c(-c3ccccc3)nn(-c3ccccc3)c2O1` (configuration not stated), the TGI [1] was 61.7 µM, the TGI [2] was 60.2 µM and the TGI [3] was 28.3 µM. It also gave a TGI [4] of 31.1 µM, a TGI [5] of 27.6 µM and a TGI [6] of 60.5 µM. It also gave a TGI [7] of 28.7 µM, a TGI [8] of 29.2 µM and a TGI [9] of 52.6 µM. For the same compound, the TGI [10] was 29.8 µM, the TGI [11] was over 100 µM and the TGI [12] was 33.7 µM. It also gave a TGI [13] of 40.5 µM, a TGI [14] of 27 µM and a TGI [15] of 35.5 µM. The TGI [16] was 33.1 µM, the TGI [17] was 8.85 µM and the TGI [18] was 29.4 µM. The TGI [19] was 27.1 µM, the TGI [20] was 38.5 µM and the TGI [21] was 53.1 µM. It also gave a TGI [22] of 51.2 µM, a TGI [23] of 6.26 µM and a TGI [24] of over 100 µM. It also gave a TGI [25] of 60 µM, a TGI [26] of 40.4 µM and a TGI [27] of 29.6 µM. It also gave a TGI [28] of 48.3 µM, a TGI [29] of 38.4 µM and a TGI [30] of over 100 µM. It also gave a TGI [31] of 14.8 µM, a TGI [32] of 47.6 µM and a TGI [33] of 22.1 µM. It also gave a TGI [34] of 38.9 µM, a TGI [35] of over 100 µM and a TGI [36] of 29.2 µM. It also gave a TGI [37] of 33.1 µM, a TGI [38] of 23.8 µM and a TGI [39] of 43.8 µM. For the same compound, the TGI [40] was 30 µM, the TGI [41] was 34.2 µM and the TGI [42] was over 100 µM. It also gave a TGI [43] of over 100 µM, a TGI [44] of 31 µM and a TGI [45] of 33.3 µM. For the same compound, the TGI [46] was over 100 µM, the TGI [47] was 52.5 µM and the TGI [48] was 30.7 µM. The TGI [49] was 28.3 µM, the TGI [50] was 26.8 µM and the TGI [51] was 32.9 µM. For the same compound, the TGI [52] was 24.4 µM, the TGI [53] was 18 µM and the TGI [54] was 77.1 µM. For the same compound, the TGI [55] was 38.2 µM.

`Nc1nc(N)c2nn(-c3ccc(C(=O)O)cc3)nc2n1` gave a TGI [1] of over 100 µM, a TGI [56] of over 100 µM and a TGI [2] of over 100 µM. The TGI [3] was over 100 µM, the TGI [4] was over 100 µM and the TGI [5] was over 100 µM. The TGI [57] was over 100 µM, the TGI [6] was over 100 µM and the TGI [7] was over 100 µM. For the same compound, the TGI [8] was over 100 µM, the TGI [9] was over 100 µM and the TGI [10] was over 100 µM. The TGI [11] was over 100 µM, the TGI [12] was over 100 µM and the TGI [13] was over 100 µM. It also gave a TGI [14] of over 100 µM, a TGI [15] of over 100 µM and a TGI [16] of over 100 µM. For the same compound, the TGI [17] was over 100 µM, the TGI [18] was over 100 µM and the TGI [19] was over 100 µM. It also gave a TGI [20] of over 100 µM, a TGI [21] of over 100 µM and a TGI [23] of over 100 µM. The TGI [24] was over 100 µM, the TGI [25] was over 100 µM and the TGI [26] was over 100 µM. The TGI [27] was over 100 µM, the TGI [28] was over 100 µM and the TGI [58] was over 100 µM. For the same compound, the TGI [29] was over 100 µM, the TGI [30] was over 100 µM and the TGI [31] was over 100 µM. It also gave a TGI [32] of over 100 µM, a TGI [33] of over 100 µM and a TGI [34] of over 100 µM. For the same compound, the TGI [35] was over 100 µM, the TGI [36] was over 100 µM and the TGI [37] was over 100 µM. It also gave a TGI [38] of over 100 µM, a TGI [39] of over 100 µM and a TGI [40] of over 100 µM. It also gave a TGI [41] of over 100 µM, a TGI [42] of over 100 µM and a TGI [43] of over 100 µM. The TGI [44] was over 100 µM, the TGI [45] was over 100 µM and the TGI [46] was over 100 µM. For the same compound, the TGI [47] was over 100 µM, the TGI [48] was over 100 µM and the TGI [49] was over 100 µM. For the same compound, the TGI [50] was over 100 µM, the TGI [51] was over 100 µM and the TGI [52] was over 100 µM. It also gave a TGI [53] of over 100 µM, a TGI [54] of over 100 µM and a TGI [55] of over 100 µM.

For `COC(=O)[C@H]1ON2O[C@H](OC3CCCC[C@@H]3c3ccccc3)C[C@@H]3CC[C@H]1[C@@]32C` (some centres not stated), the TGI [1] was over 100 µM, the TGI [56] was over 100 µM and the TGI [2] was over 100 µM. The TGI [3] was over 100 µM, the TGI [4] was over 100 µM and the TGI [5] was over 100 µM. It also gave a TGI [57] of over 100 µM, a TGI [6] of over 100 µM and a TGI [7] of over 100 µM. For the same compound, the TGI [8] was over 100 µM, the TGI [9] was over 100 µM and the TGI [10] was over 100 µM. For the same compound, the TGI [11] was over 100 µM, the TGI [59] was over 100 µM and the TGI [13] was over 100 µM. For the same compound, the TGI [14] was over 100 µM, the TGI [15] was over 100 µM and the TGI [16] was over 100 µM. It also gave a TGI [17] of 98.5 µM, a TGI [18] of over 100 µM and a TGI [19] of over 100 µM. The TGI [20] was over 100 µM, the TGI [21] was over 100 µM and the TGI [22] was over 100 µM. It also gave a TGI [23] of over 100 µM, a TGI [24] of over 100 µM and a TGI [25] of over 100 µM. It also gave a TGI [26] of over 100 µM, a TGI [27] of over 100 µM and a TGI [28] of over 100 µM. It also gave a TGI [58] of over 100 µM, a TGI [29] of over 100 µM and a TGI [30] of over 100 µM. For the same compound, the TGI [31] was over 100 µM, the TGI [32] was over 100 µM and the TGI [33] was over 100 µM. The TGI [34] was over 100 µM, the TGI [35] was over 100 µM and the TGI [36] was over 100 µM. The TGI [37] was over 100 µM, the TGI [38] was over 100 µM and the TGI [39] was over 100 µM. It also gave a TGI [40] of over 100 µM, a TGI [41] of over 100 µM and a TGI [42] of over 100 µM. The TGI [43] was over 100 µM, the TGI [44] was over 100 µM and the TGI [45] was over 100 µM. It also gave a TGI [46] of over 100 µM, a TGI [47] of over 100 µM and a TGI [48] of over 100 µM. The TGI [49] was over 100 µM, the TGI [50] was over 100 µM and the TGI [51] was over 100 µM. For the same compound, the TGI [52] was over 100 µM, the TGI [53] was over 100 µM and the TGI [55] was over 100 µM.

`COC(=O)c1ccc2[nH]c3c(c2c1)CC(=O)Nc1ccccc1-3` was tested, and the TGI [1] was over 100 µM, the TGI [56] was over 100 µM and the TGI [2] was over 100 µM. For the same compound, the TGI [3] was over 100 µM, the TGI [5] was over 100 µM and the TGI [57] was 40.2 µM. The TGI [6] was over 100 µM, the TGI [7] was over 100 µM and the TGI [8] was over 100 µM. The TGI [9] was over 100 µM, the TGI [11] was over 100 µM and the TGI [12] was 5.52 µM. The TGI [59] was 25 µM, the TGI [13] was over 100 µM and the TGI [14] was 97.7 µM. For the same compound, the TGI [15] was over 100 µM, the TGI [16] was over 100 µM and the TGI [18] was over 100 µM. The TGI [19] was over 100 µM, the TGI [20] was 0.211 µM and the TGI [21] was over 100 µM. It also gave a TGI [22] of over 100 µM, a TGI [24] of over 100 µM and a TGI [25] of over 100 µM. For the same compound, the TGI [26] was over 100 µM, the TGI [27] was over 100 µM and the TGI [28] was over 100 µM. It also gave a TGI [58] of over 100 µM, a TGI [30] of over 100 µM and a TGI [31] of over 100 µM. The TGI [32] was over 100 µM, the TGI [33] was over 100 µM and the TGI [34] was over 100 µM. It also gave a TGI [35] of over 100 µM, a TGI [36] of over 100 µM and a TGI [37] of over 100 µM. It also gave a TGI [38] of over 100 µM, a TGI [39] of over 100 µM and a TGI [41] of 6.11 µM. The TGI [42] was over 100 µM, the TGI [43] was over 100 µM and the TGI [44] was over 100 µM. For the same compound, the TGI [45] was over 100 µM, the TGI [46] was over 100 µM and the TGI [47] was over 100 µM. It also gave a TGI [48] of over 100 µM, a TGI [49] of over 100 µM and a TGI [50] of 94.6 µM. It also gave a TGI [51] of over 100 µM, a TGI [52] of over 100 µM and a TGI [53] of over 100 µM. It also gave a TGI [54] of over 100 µM and a TGI [55] of over 100 µM.
